Tests used:
spontaneous gliomas = assay: Anti-GBM efficacy of BIM2b PO by the oral route in dogs with spontaneous gliomas; assay type: in vivo; details: oral treatment; mean survival of a dog with GBM 2-3 months
Procedure: 9 dogs with spontaneous gliomas diagnosed by imagery were included in the study.
The condition and the tumour volume are evaluated by MRI.
On day D0 (1st administration), the GBM dog subject is examined clinically and a blood sample is collected for analysis of the biochemical parameters. On D15, an electrocardiogram is recorded and a blood sample is taken.
Electrocardiograms, blood samples and MRI are carried out on D42, D63, D84 and D105, then 3 months and 6 months after stopping the treatment.
The tumour response is evaluated by MRI based on the RECIST criteria (Response Evaluation Criteria in Solid Tumours). These criteria define the tumoral response as follows: • progression is an increase in size of the largest axis of the tumour of more than 20% relative to the preceding MRI; • regression is defined by a decrease in the size of the largest axis of the tumour of more than 30% relative to the preceding MRI; • stability is defined by a change in the size of the tumour between a decrease of less than 30% and an increase of less than 20%.

[1] = Analysis of BIM2b in the brains of mice treated per os with BIM2b PO (HPTLC); assay type: in vivo, mouse; details: for Compound BIM2b (μg/g of brain): healthy mice, BIM2b PO per os
Procedure: The mouse brains dried and stored invididually in cryotubes at […] in liquid nitrogen are left to return to ambient temperature. Each brain is weighed and put in the Potter; 4 ml of 0.74% of cold KCl is added and the rest of the procedure takes place on a bed of ice. Each brain is ground 6 times at 1000 rev/min, each cycle comprising 5 minutes of grinding and 5 minutes of rest. The oxysterols are extracted according to the Folch procedure described above (II.3.). The lipid residue is then subjected to adsorption chromatography on a silica column.
The silica (8 g) is prepared in 40 ml of the hexane:ether mixture (diethyl-oxide (3:7, v/v) and then poured into the appropriate columns. The height of the silica bed is 18 cm and its volume is 15 ml.
A suitable quantity of mouse brain extract is dissolved in 1 ml of the first eluent system and deposited on the silica bed. Elution takes place in 4 steps in order to concentrate the fractions containing the oxysterols and remove as far as possible the lipids contaminating the mouse brain, in particular cholesterol.
The groups of fractions are evaporated to dryness, dissolved in acetone and the appropriate volumes are subjected to HPTLC chromatography.
The treatment of the healthy mice per os with BIM2b PO and the provenance of the brains are described in Example 4.
The compound BIM2b and its metabolites in the brains were separated, detected and quantified by HPTLC as described in the Methods section.

[2] = in vivo
Procedure: The GBM tumour was obtained by necropsy of a dog with glioblastoma, which was treated by the oral route with BIM2b PO and which lived with a good quality of life for 8 months. Necropsy was carried out 21 days after stopping the treatment with BIM2b PO. The tumour was fixed in formol mainly for histopathology analysis and a remaining fragment was analysed for quantification of BIM2b.
The fragments of dog brains, stored individually in cryotubes at +4° C. in a bath of formol, are dried on sopalin paper before they are weighed and put in the Potter. Just as for extraction of the mouse brains, each fragment was extracted after adding 4 ml of cold 0.74% KCl. The procedures for homogenization and extraction are the same as was described for the mouse brains in the Methods section.
Dry lipid extract of the dog GBM tumour fragment was thus obtained and was chromatographed sequentially on a SEP PAK Classic Silica cartridge; then on SEP PAK Plus C18 (with eluent A=5 mM of ammonium acetate/ultrapure water and B=5 mM of ammonium acetate/MetOH).
The compound BIM2b and its metabolites in the tumour are separated, detected and quantified by HPTLC as described in Section II) Methods.

wild-type mice [3] = details: mouse, in vivo
Procedure: (§1) The composition from Example 2 was administered orally (by tube) to wild-type mice at a rate of 1.5 mg (50 μl of BIM2 PO) per animal, twice a day, 5 days out of 7 with a maximum duration of treatment of 21 days.
(§2) In the treated group, 2 mice were sacrificed after 18 days and 3 mice were sacrificed after 21 days. In the control group, 3 mice were sacrificed after 21 days.
(§3) The samples of internal organs (stomach, alimentary canal, liver, kidney, lung, heart) were immersed in 4% formaldehyde for 72 h and stored at 4° C., and then embedded in paraffin. The samples underwent macroscopic analysis before and after thinning.
(§4) Histological examination of the internal organs fixed with formaldehyde and toxicological quantifications were carried out on sections stained with haematoxylin-eosin-saffron according to a 4-level evaluation system complying with the nomenclature (3).
(§5) All the sections were examined for possible signs of cellular alteration, degeneration, necrosis, inflammation, fibrosis etc.

beagle dogs [4] = details: dog, in vivo
beagle dogs [5] = assay: Study of tolerance of BIM2b PO in healthy dogs
wild-type mice [6] = assay: Investigation of toxicity of BIM2b PO in healthy mice
Procedure: as §1, §2, §3, §4, §5

GBM = details: cited from earlier work

## CC(=O)O[C@H]1C=C2CC(OC(=O)C3COC(C)(C)O3)CC[C@]2(C)C2CC[C@@]3(C)C(CCC3[C@H](C)CCCC(C)C)C21 (stereo in doubt) [BIM2b, 7-acetoxy-10,13-dimethyl-17-(6-methylheptan-2-yl)-2,3,4,7,8,9,10,11,12,13,14,15,16,17-tetradecahydro-1H-cyclopenta[a]phenanthren-3-yl 2,2-dimethyl-1,3-dioxolane-4-carboxylate]
Spontaneous gliomas
  survival of the GBM dog subject whose tumour was analysed: 8 months
[1]; Day D2
  Compound BIM2b (μg/g of brain): 12.5 μg/g of brain
[1]; Day D4
  Compound BIM2b (μg/g of brain): 7.1 μg/g of brain
[1]; Day D18
  Compound BIM2b (μg/g of brain): 11.7 μg/g of brain
[1]; Day D22 (treatment stopped on D20)
  Compound BIM2b (μg/g of brain): 1.0 μg/g of brain
[1]; on D18
  percentage of BIM2b found in the brains relative to the total quantity ingested: 0.013%
[1]; on D22, after stopping of the treatment on D20
  drop in the content of BIM2b in the mouse brain: 91.5%
[1]; treated healthy mice, oral
  crossing of the blood-brain barrier (BBB): crosses the blood-brain barrier (BBB)
[2]; dog
  crossing of the BTB: crosses the BTB
  percentage by weight of BIM2b found in the whole tumour relative to the total quantity ingested: 0.39%
[2]; 21 days after stopping the treatment
  ratio of percentage in dog tumour to percentage in brains of healthy mice: 30 times
wild-type mice [3]
  hepatic or renal toxicity (biological parameters): did not demonstrate hepatic or renal toxicity
Beagle dogs [4]
  undesirable clinical effects: did not cause undesirable clinical effects
Beagle dogs [5]
  hepatic or renal toxicity: did not demonstrate hepatic or renal toxicity
Beagle dogs [5]; administered as BIM2b PO
  toxicity (conclusion): does not lead to any toxicity
wild-type mice [6]; oral
  toxicity (conclusion): does not entrain any toxicity
wild-type mice [6]; twice a day, 5 times a week
  undesirable clinical effects: did not give rise to undesirable clinical effects

## CN(C)C/C=C/C(=O)Nc1cc2c(Nc3ccc(F)c(Cl)c3)ncnc2cc1O[C@H]1CCOC1 [afatinib dimaleate]
GBM
  median survival for patients with GBM: do not improve the median survival

## N.N.[Cl][Pt][Cl] [cisplatin]
GBM
  median survival for patients with GBM: do not improve the median survival

## O=P1(N(CCCl)CCCl)NCCCO1 (stereo not drawn) [cyclophosphamide]
GBM
  median survival for patients with GBM: do not improve the median survival

## bleomycin
GBM
  median survival for patients with GBM: do not improve the median survival
